From US20120076781A1, “METHODS OF TREATING CANCERS WITH HER3 ANTISENSE OLIGONUCLEOTIDES” (ENZON PHARMACEUTICALS, INC., priority 2009, published 2012)
In the oligonucleotide strings, read from the 5' end, every base follows the letter of its sugar. An asterisk marks phosphorothioate; unmarked linkages are phosphodiester. Other units and linkages are bracketed, terminal groups are in braces. A string of capitals states the bases alone. l = locked nucleic acid (LNA); [5mC] = 5-methylcytosine; d = 2'-deoxy (DNA)

Legend:
[1] = system: Mouse HER3 mRNA; assay: HER3 mRNA knockdown in liver of nude mice bearing 15PC3 xenografts, qd x 5 (qRT-PCR); assay type: in vivo; conditions: i.v.
Method: (§1) To evaluate the knockdown efficacy of the HER3 oligomeric compounds in vivo, the female nude mice bearing 15PC3 xenografts developed by subcutaneous injection of 5×10^6 cells/mouse into the right axillary flank, were injected intravenously with the oligomers at various doses and injection schedules (i.e. single dose, qd, q3d, q4d). Scrambled oligomer SEQ ID NO: 236 served as a negative control. 24 hours after the last injection, the mice were euthanized and liver and tumor tissues were collected in RNAlater solution (Ambion). Total RNA was purified from the tissues and the levels of HER3 mRNA were determined by quantitative reverse transcription-real time PCR (qRT-PCR) using the QuantiTect Probe RT-PCR kit (Cat#: 204443; Qiagen). GAPDH mRNA served as an internal control.
(§2) 200 ng of total RNA was used in the PCR reaction. The data analyses were performed by using the ABI-7500 PCR Fast System included software.
(§3) Data in Table 5 are presented as % HER3 mRNA levels relative to saline treated controls in liver and tumor samples after i.v. dosing of animals on 5 consecutive days with oligonucleotides in the doses indicated.

[2] = system: human HER3 mRNA; assay: HER3 mRNA knockdown in 15PC3 xenograft tumor in nude mice, qd x 5 (qRT-PCR); assay type: in vivo; conditions: i.v., relative to saline controls
Method: as §1, §2, §3

[3] = system: HER3 mRNA; assay: HER3 mRNA knockdown in 15PC3 xenograft tumor, different dosing cycle; assay type: in vivo, human; conditions: every third day
Method: as §1
(§4) The knockdown efficacy of oligomers was evaluated in vivo in nude mice bearing xenograft tumors derived from 15PC3 cells or A549 cells (NSCLC) or N87 cells (gastric carcinoma) using a similar protocol to the one described above in Example 11. Oligomers were administered by injection every third day in 2-4 doses. Tissues were harvested 3 or 4 days after the last injection.
(§5) Data in Tables 6 and 7 are presented as % HER3 mRNA or HIF-1 alpha mRNA relative to saline treated controls in liver and tumor samples after i.v. dosing of animals with the indicated oligomers.

[4] = system: HIF-1 alpha mRNA; assay: HIF-1 alpha mRNA in 15PC3 xenograft tumor, different dosing cycle; assay type: in vivo, human; conditions: 60.2 x 2 or 3 mg/kg i.v., every third day
Method: as §1, §4, §5

[5] = system: HER3 mRNA; assay: HER3 mRNA knockdown in liver of xenograft-bearing nude mice, different dosing cycle; assay type: in vivo, mouse; conditions: for Liver HER3 mRNA relative to saline treated controls: 15PC3 xenograft mice, every third day
Method: as §1
as §4, with “Oligomers were administered by injection every third day in 2-4 doses.” left out
as §5

[6] = system: HER3 mRNA; assay: HER3 mRNA knockdown in A549 (NSCLC) xenograft tumor; assay type: in vivo, human; conditions: 35 mg/kg, q4d x 3, i.v.
Method: as §1, §4, §5

[7] = system: HER3 mRNA; assay: HER3 mRNA knockdown in N87 (gastric carcinoma) xenograft tumor; assay type: in vivo, human; conditions: 25 mg/kg, q3d x 5, i.v.
Method: as §1
as §4, with “Oligomers were administered by injection every third day in 2-4 doses.” left out
as §5

[8] = system: gefitinib-resistant HCC827 cells; assay: Colony growth of gefitinib-resistant HCC827R cells (MTT staining, colony count); assay type: cell-based, human; conditions: 1 μM, 10 days
Method: (§6) HCC827 lung adenocarcinoma cells (ATCC CRL-2868) were maintained at 37° C. in a humidified atmosphere of 5% CO2 and 95% air in RPMI medium supplemented with 10% fetal bovine serum. To generate gefitinib resistance, cells were treated with increasing amounts of gefitinib (up to 500 nM) for a period of 3 months.
(§7) HCC287 and HCC287R cells were plated in duplicate at 200 cells/well of a 6-well plate and incubated for 24 hours. Cells were treated with 1 μM of ON180 (SEQ ID NO: 180) and incubated for 10 days, after which cells were stained with MTT and the number of colonies counted. Percent of control was calculated for both HCC827 and […] cells.

[9] = system: HCC827 gefitinib-sensitive cells; assay: Colony growth of gefitinib-sensitive HCC827 cells (MTT staining, colony count); assay type: cell-based, human; conditions: 1 μM, 10 days
Method: as §6, §7

[10] = system: HCC827 human cell line xenograft; assay: Tumor growth in mouse xenograft model of human non-small cell lung cancer; assay type: in vivo; conditions: at approximately 31 days
[11] = system: HER3 and P-HER3; assay: Feedback upregulation of HER3 and P-HER3 by lapatinib in BT474, SKBR3 and MDA453 cells; assay type: cell-based, human; conditions: lapatinib 1 μM, trastuzumab 10 μg/ml, SEQ ID NO: 180 5 μM, 0-48 hours

Substance: TSASGScScStSgStScSaScStStSCSTSC (antisense lT*lA*lG*dC*dC*dT*dG*dT*dC*dA*dC*dT*dT*l[5mC]*lT*l[5mC]) [SEQ ID NO: 180, β-D-oxy-LNA/DNA phosphorothioate gapmer antisense oligonucleotide targeting HER3]
- HER3 mRNA Liver ([1]; 19.8 mg/kg): 1.7 ± 0.6 % of Sal ctrl
- HER3 mRNA Liver ([1]; 25.6 mg/kg): 3 ± 0.3 % of Sal ctrl
- HER3 mRNA Liver ([1]; 31.3 mg/kg): 1.6 ± 0.3 % of Sal ctrl
- HER3 mRNA Liver ([1]; 66 mg/kg): 6 ± 5.3 % of Sal ctrl
- HER3 mRNA Liver ([1]; 85.3 mg/kg): 1 ± 0.3 % of Sal ctrl
- HER3 mRNA Tumor ([2]; 19.8 mg/kg): 83.1 ± 19.5%
- HER3 mRNA Tumor ([2]; 25.6 mg/kg): 65 ± 20.2%
- HER3 mRNA Tumor ([2]; 31.3 mg/kg): 37 ± 5.8%
- HER3 mRNA Tumor ([2]; 66 mg/kg): 32.3 ± 9.7%
- HER3 mRNA Tumor ([2]; 85.3 mg/kg): 25.8 ± 4.1%
- Tumor HER3 mRNA relative to saline treated controls ([3]; 60.2 x 4 mg/kg i.v.): 54.2 ± 9.1%
- Tumor HER3 mRNA relative to saline treated controls ([3]; 60.2 x 2 or 3 mg/kg i.v.): 47.1 ± 2.2%
- Tumor Hif1A mRNA relative to saline treated controls [4]: 101 ± 7.3%
- Liver HER3 mRNA relative to saline treated controls ([5]; 60.2 x 4 mg/kg i.v.): 31.8 ± 5%
- Liver HER3 mRNA relative to saline treated controls ([5]; 60.2 x 2 or 3 mg/kg i.v.): 6.9 ± 3.6%
- HER3 Liver ([5]; A549 xenograft mice, 35 mg/kg, q4d x 3, i.v.): 31.8 ± 5.7 % saline control
- HER3 Liver ([5]; N87 xenograft mice, 25 mg/kg, q3d x 5, i.v.): 24.7 ± 3.1 % saline control
- HER3 Tumor [6]: 54.6 ± 15.2 % saline control
- HER3 Tumor [7]: 46.6 ± 13.4 % saline control
- reduction in cell growth as compared to the untreated control [8]: greater than 80%
- reduction in cell growth as compared to the untreated control [9]: about 50%
- Mean tumor volume reduced vs. saline control ([10]; 30 mg/kg i.v.): 65.5%
- Mean tumor volume reduced vs. saline control ([10]; 45 mg/kg i.v.): 81.3%
- prevention of feedback upregulation of HER3 and P-HER3 expression by lapatinib [11]: able to prevent feedback upregulation of HER3 and P-HER3 expression by lapatinib
